≈ marks a conversion by molar mass, not a printed value.

Holding throughout (assay type): cell-based
Test [1] deals with ATCC13883 strain (Klebsiella pneumoniae). The test can be described thus: Checkerboard antibacterial synergistic activity test with polymyxin E (FIC). Also on record: key: FIC≤0.5 synergy; 0.5–1 additive; 1–2 indifferent; ≥2 antagonism. As to conditions: combined with polymyxin E. The method in brief: (§1)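 Broth checkerboard synergy with colistin; listed dilutions are working solutions, not final well levels. Overnight incubation, 16 h at 37° C.; FIC ≤0.5 denotes synergy, ≥2 antagonism.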

Test [2] deals with ATCC19606 strain (Acinetobacter baumannii). The description is as above. Also on record: key: FIC≤0.5 synergy; 0.5–1 additive; 1–2 indifferent; ≥2 antagonism. The note with it: combined with polymyxin E. The method in brief:
as §1

Test [3] concerns ATCC25922 strain (Escherichia coli). Described as above. On the set-up: key: FIC≤0.5 synergy; 0.5–1 additive; 1–2 indifferent; ≥2 antagonism. As to conditions: combined with polymyxin E. The method in brief: as §1
Test [4] has as its system ATCC9027 strain (Pseudomonas aeruginosa). Described as above. Also on record: key: FIC≤0.5 synergy; 0.5–1 additive; 1–2 indifferent; ≥2 antagonism. As to conditions: combined with polymyxin E. The method in brief:
as §1

In test [5] the test system is ATCC13883 strain (Klebsiella pneumoniae). The test can be described thus: Broth microdilution, antibacterial activity of the compound used alone. The source says: (§2) The broth microdilution method was used to test the antibacterial effects of the compounds of the present invention against various Gram-negative bacterial strains when used alone.
The test system of test [6] is ATCC19606 strain (Acinetobacter baumannii). The description is as above.
Description: as §2

The subject of test [7] is ATCC25922 strain (Escherichia coli). The description is as above.
Description: as §2

Test [8] concerns ATCC9027 strain (Pseudomonas aeruginosa). The description is as above.
Description: as §2

As for `FC(F)(F)c1ccc(-c2cccs2)c(-c2c[nH]c(N=C3NCCCN3)n2)c1` [Compound I-140], the “Synergistic activity (FIC value) ATCC13883” value in test [1] is recorded as 1.25. The “Synergistic activity (FIC value) ATCC19606” value in test [2] amounted to 0.51. Further, the “Synergistic activity (FIC value) ATCC25922” value in test [3] is 1.25. In addition, the “Synergistic activity (FIC value) ATCC9027” value in test [4] was found to be 0.52. Also, the “Antibacterial activity of the compound of Formula I, ATCC13883” value (shortened to “Antibacterial activity … ATCC13883”) in test [5] was 256 µg/mL. Moreover, the “Antibacterial activity of the compound of Formula I, ATCC19606” value (“Antibacterial activity … ATCC19606” for short) in test [6] came to 256 µg/mL. In test [7], the “Antibacterial activity of the compound of Formula I, ATCC25922” value (“Antibacterial activity … ATCC25922” below) amounted to 256 µg/mL. For the same compound, in test [8], the “Antibacterial activity of the compound of Formula I, ATCC9027” value (shortened to “Antibacterial activity … ATCC9027”) stood at 256 µg/mL.
In the case of `NC(N)=Nc1nc(-c2ccc(O)c(CO)c2)cs1` [Compound I-121], the “Synergistic activity (FIC value) ATCC13883” value in test [1] came out at 1.25. Besides, the “Synergistic activity (FIC value) ATCC19606” value in test [2] was found to be 1.25. In addition, in test [3], the “Synergistic activity (FIC value) ATCC25922” value turned out to be 0.56. Further, the “Synergistic activity (FIC value) ATCC9027” value in test [4] is recorded as 1.25. Moreover, the MIC in test [5] (read-out: Antibacterial activity of the compound of Formula I, ATCC13883) came to 256 µg/mL (≈ 969 µM); in test [6] (read-out: Antibacterial activity of the compound of Formula I, ATCC19606), 256 µg/mL (≈ 969 µM); in test [7] (read-out: Antibacterial activity of the compound of Formula I, ATCC25922), 256 µg/mL (≈ 969 µM); in test [8] (read-out: Antibacterial activity of the compound of Formula I, ATCC9027), 256 µg/mL (≈ 969 µM).
Take `NC(N)=Nc1nc(-c2c(Br)cc(Br)cc2Br)c(I)o1` [Compound I-53]: the “Synergistic activity (FIC value) ATCC13883” value in test [1] amounted to 0.25. In addition, the “Synergistic activity (FIC value) ATCC19606” value in test [2] is listed as 0.28. Moreover, in test [3], the “Synergistic activity (FIC value) ATCC25922” value is 0.5. In addition, in test [4], the “Synergistic activity (FIC value) ATCC9027” value was found to be 0.63. Also, in test [5], the “Antibacterial activity … ATCC13883” value was determined as 256 µg/mL. For the same compound, the “Antibacterial activity … ATCC19606” value in test [6] worked out at 256 µg/mL. Moreover, the “Antibacterial activity … ATCC25922” value in test [7] came to 256 µg/mL. In addition, the “Antibacterial activity … ATCC9027” value in test [8] is 256 µg/mL.
For the compound `Cc1[nH]c(N=C2NCCCN2)nc1-c1cc(C(C)(C)C)cc(C(C)(C)C)c1` [Compound I-162], the “Synergistic activity (FIC value) ATCC13883” value in test [1] is 0.16. Further, the “Synergistic activity (FIC value) ATCC19606” value in test [2] is listed as 0.03. In test [3], the “Synergistic activity (FIC value) ATCC25922” value is 0.18. Besides, the “Synergistic activity (FIC value) ATCC9027” value in test [4] was 0.28. The “Antibacterial activity … ATCC13883” value in test [5] came to 256 µg/mL. In test [6], the “Antibacterial activity … ATCC19606” value came to 256 µg/mL. For the same compound, the “Antibacterial activity … ATCC25922” value in test [7] stood at 256 µg/mL. In addition, the “Antibacterial activity … ATCC9027” value in test [8] was 256 µg/mL.
With `Ic1ccc(-c2csc(N=C3NCCCN3)n2)cc1` [Compound I-181], in test [1], the “Synergistic activity (FIC value) ATCC13883” value is on record as 0.19. Besides, in test [2], the “Synergistic activity (FIC value) ATCC19606” value was determined as 0.13. Moreover, in test [3], the “Synergistic activity (FIC value) ATCC25922” value turned out to be 0.52. The “Synergistic activity (FIC value) ATCC9027” value in test [4] turned out to be 1.25. Moreover, the “Antibacterial activity … ATCC13883” value in test [5] worked out at 256 µg/mL. Moreover, the “Antibacterial activity … ATCC19606” value in test [6] was 256 µg/mL. The “Antibacterial activity … ATCC25922” value in test [7] came to 256 µg/mL. Besides, the “Antibacterial activity … ATCC9027” value in test [8] was 256 µg/mL.
Consider `NC(N)=Nc1nc(-c2cccc(Oc3ccc(N4CCOCC4)cc3)c2)cs1` [Compound I-105], for which, in test [1], the “Synergistic activity (FIC value) ATCC13883” value stood at 1.25. In addition, in test [2], the “Synergistic activity (FIC value) ATCC19606” value is on record as 1.25. In addition, in test [3], the “Synergistic activity (FIC value) ATCC25922” value is listed as 1.25. In addition, the “Synergistic activity (FIC value) ATCC9027” value in test [4] is recorded as 0.51. The “Antibacterial activity … ATCC13883” value in test [5] came out at 256 µg/mL. The “Antibacterial activity … ATCC19606” value in test [6] was determined as 256 µg/mL. For the same compound, in test [7], the “Antibacterial activity … ATCC25922” value was determined as 256 µg/mL. Moreover, the “Antibacterial activity … ATCC9027” value in test [8] is 256 µg/mL.
As to `CCc1oc(N=C2NCCCN2)nc1-c1cccc(C(C)C)c1` [Compound I-165], the “Synergistic activity (FIC value) ATCC13883” value in test [1] was found to be 0.31. The “Synergistic activity (FIC value) ATCC19606” value in test [2] was determined as 0.13. Moreover, the “Synergistic activity (FIC value) ATCC25922” value in test [3] is 0.38. Moreover, the “Synergistic activity (FIC value) ATCC9027” value in test [4] is 0.53. Further, the “Antibacterial activity … ATCC13883” value in test [5] turned out to be 256 µg/mL. The “Antibacterial activity … ATCC19606” value in test [6] turned out to be 256 µg/mL. Further, in test [7], the “Antibacterial activity … ATCC25922” value was determined as 256 µg/mL. The “Antibacterial activity … ATCC9027” value in test [8] worked out at 256 µg/mL.

The record behind these values is US20260250257A1, “ANTIBACTERIAL AND SYNERGISTIC ACTIVE COMPOUND AND USE THEREOF” (EAST CHINA UNIVERSITY OF SCIENCE AND TECHNOLOGY, priority 2023, published 2026).
